Common to all, as to type: functional
Test [1] relates to PC-3. In words: Cytotoxicity against human PC3 cells assessed as inhibition of cell viability at 10 uM after 3 days by trypan blue dye exclusion assay. The following applies: PC-3, 72 h.
The subject of test [2] is PC-3. In words: Cytotoxicity against human PC3 cells assessed as inhibition of cell viability at 1 uM after 3 days by trypan blue dye exclusion assay. Particulars: PC-3, 72 h.
Test [3] relates to DU-145. In words: Cytotoxicity against human DU145 cells assessed as inhibition of cell viability at 10 uM after 3 days by trypan blue dye exclusion assay. The following applies: DU-145, 72 h.
Test [4] concerns DU-145. Description: Cytotoxicity against human DU145 cells assessed as inhibition of cell viability at 1 uM after 3 days by trypan blue dye exclusion assay. The following applies: DU-145, 72 h.
Test [5] deals with LNCaP. Description: Cytotoxicity against human LNCAP cells assessed as inhibition of cell viability at 10 uM after 3 days by trypan blue dye exclusion assay. The following applies: 72 h.
For test [6], the system named is LNCaP. In words: Cytotoxicity against human LNCAP cells assessed as inhibition of cell viability at 1 uM after 3 days by trypan blue dye exclusion assay. Particulars: 72 h.
Test [7] deals with HeLa. In words: Cytotoxicity against human HeLa cells assessed as inhibition of cell viability at 10 uM after 3 days by trypan blue dye exclusion assay. The following applies: 72 h.
Test [8] deals with HeLa. Description: Cytotoxicity against human HeLa cells assessed as inhibition of cell viability at 1 uM after 3 days by trypan blue dye exclusion assay. The following applies: 72 h.

Our source for the inhibition values is ChEMBL document CHEMBL3576841, “Structure-Activity Relationship and Pharmacokinetic Studies of 1,5-Diheteroarylpenta-1,4-dien-3-ones: A Class of Promising Curcumin-Based Anticancer Agents” (J Med Chem, 2015).

The structures appear in SMILES notation.

As for `Cn1nc(C(F)(F)F)c(/C=C/C(=O)/C=C/c2c(C(F)(F)F)nn(C)c2Cl)c1Cl`, the inhibition at 10 µM in the test on PC-3 [1] is 70.8%; in the test with DU-145 [3], 84.2%; in the test on LNCaP [5] it was 52.8%; in the test with HeLa [7] it was 92.7%. For the same compound, the inhibition at 1 µM with PC-3 [2] was 0%; in the test on DU-145 [4], 31.5%; in the test on LNCaP [6], 9.26%; in the test on HeLa [8], 32.4%.

`O=C(/C=C/c1cccnc1)/C=C/c1cccnc1`: the inhibition at 10 µM with PC-3 [1] is 86.7%; in the test on DU-145 [3], 77.7%; in the test with LNCaP [5], 53.7%; in the test on HeLa [7] it was 97.7%. The inhibition at 1 µM with PC-3 [2] was determined as 8.05%; in the test on DU-145 [4], 4.76%; in the test with LNCaP [6], 15.7%; in the test on HeLa [8], 26.6%.

In the case of `O=C(/C=C/c1cc2ccccc2nc1Cl)/C=C/c1cc2ccccc2nc1Cl`, the inhibition at 10 µM in the test with PC-3 [1] is 1.64%; with DU-145 [3], 6.22%; in the test on LNCaP [5], 14.3%; in the test with HeLa [7], 21.5%. Moreover, the inhibition at 1 µM with PC-3 [2] turned out to be 0%; in the test on DU-145 [4] it was 6.22%; in the test on LNCaP [6] it was 11.6%; in the test on HeLa [8], 6.64%.

As for `CCCCCCCn1c(/C=C/C(=O)/C=C/c2nc3ccccc3n2CCCCCCC)nc2ccccc21`, the inhibition at 10 µM was 88.1% with PC-3 [1], 86.1% in the test on DU-145 [3], 74.7% in the test on LNCaP [5] and 97.5% in the test with HeLa [7]. Moreover, the inhibition at 1 µM came out at 72.8% in the test with PC-3 [2], 36.5% with DU-145 [4], 42.1% in the test with LNCaP [6] and 90.4% in the test with HeLa [8].

For the compound `O=C(/C=C/c1cccc(Br)n1)/C=C/c1cccc(Br)n1`, the inhibition at 10 µM worked out at 91.9% in the test with PC-3 [1], 83% in the test on DU-145 [3], 65% in the test with LNCaP [5] and 89.6% in the test with HeLa [7]. Also, the inhibition at 1 µM in the test with PC-3 [2] is 13.2%; with DU-145 [4], 21.4%; in the test on LNCaP [6], 45.7%; with HeLa [8] it was 14.6%.

As to `Cc1nc(/C=C/C(=O)/C=C/c2nc(C)c(-c3ccncc3)s2)sc1-c1ccncc1`, the inhibition at 10 µM in the test on PC-3 [1] was found to be 25.7%; with DU-145 [3], 35.2%; with LNCaP [5], 23.4%; with HeLa [7], 49%. The inhibition at 1 µM in the test with PC-3 [2] worked out at 14.4%; with DU-145 [4], 13.5%; with LNCaP [6], 34.4%; with HeLa [8], 22.9%.

Consider `O=C(/C=C/c1cocn1)/C=C/c1cocn1`, for which the inhibition at 10 µM was determined as 87.4% with PC-3 [1], 85.9% in the test on DU-145 [3], 41.9% in the test on LNCaP [5] and 97.6% in the test on HeLa [7]. In addition, the inhibition at 1 µM is 9.37% with PC-3 [2], 0.01% with DU-145 [4], 25.8% in the test with LNCaP [6] and 16.1% in the test on HeLa [8].

As to `O=C(/C=C/c1ccncc1)/C=C/c1ccncc1`, the inhibition at 10 µM with PC-3 [1] was determined as 87.8%; with DU-145 [3], 89.7%; in the test on LNCaP [5], 78.7%; with HeLa [7] it was 95%. For the same compound, the inhibition at 1 µM amounted to 32% with PC-3 [2], 31.9% with DU-145 [4], 29.6% in the test on LNCaP [6] and 40.2% in the test with HeLa [8].

Regarding `O=C(/C=C/c1ccc(C(F)(F)F)nc1)/C=C/c1ccc(C(F)(F)F)nc1`, the inhibition at 10 µM worked out at 91.6% in the test with PC-3 [1], 75.5% in the test with DU-145 [3], 68.8% in the test on LNCaP [5] and 97.9% in the test on HeLa [7]. The inhibition at 1 µM was 37.9% with PC-3 [2], 0.01% in the test with DU-145 [4], 22.6% in the test with LNCaP [6] and 33.8% with HeLa [8].

For `Cc1noc(C)c1/C=C/C(=O)/C=C/c1c(C)noc1C`, the inhibition at 10 µM in the test on PC-3 [1] was 94.5%; in the test with DU-145 [3], 86%; with LNCaP [5] it was 50.7%; with HeLa [7] it was 99.2%. Moreover, the inhibition at 1 µM in the test on PC-3 [2] turned out to be 50%; with DU-145 [4], 27.2%; in the test on LNCaP [6], 31.9%; in the test with HeLa [8] it was 69.1%.

Consider `O=C(/C=C/c1ccc2ccccc2n1)/C=C/c1ccc2ccccc2n1`, for which the inhibition at 10 µM worked out at 83.8% with PC-3 [1], 86.5% in the test with DU-145 [3], 67% in the test with LNCaP [5] and 96.5% with HeLa [7]. The inhibition at 1 µM amounted to 0.9% in the test on PC-3 [2], 23.5% in the test with DU-145 [4], 9.61% in the test with LNCaP [6] and 21.2% with HeLa [8].

In the case of `O=C(/C=C/c1nc2ccccc2s1)/C=C/c1nc2ccccc2s1`, the inhibition at 10 µM in the test on PC-3 [1] was 69.8%; with DU-145 [3], 46.8%; in the test on LNCaP [5], 69.5%; with HeLa [7], 96.2%. Further, the inhibition at 1 µM in the test with PC-3 [2] was 6.29%; with DU-145 [4] it was 18.2%; in the test with LNCaP [6] it was 21.9%; in the test with HeLa [8], 21.3%.

`CCCCCCCn1ccnc1/C=C/C(=O)/C=C/c1nccn1CCCCCCC`: the inhibition at 10 µM in the test on PC-3 [1] is 92.2%; with DU-145 [3] it was 88.6%; in the test with LNCaP [5] it was 85.4%; in the test on HeLa [7] it was 98.9%. In addition, the inhibition at 1 µM in the test on PC-3 [2] was found to be 85.2%; in the test on DU-145 [4], 35.9%; with LNCaP [6], 52.7%; in the test with HeLa [8] it was 89.7%.

As to `Cn1cncc1/C=C/C(=O)/C=C/c1cncn1C`, the inhibition at 10 µM was found to be 59.4% in the test on PC-3 [1], 47.2% with DU-145 [3], 58.3% with LNCaP [5] and 84.1% with HeLa [7]. Besides, the inhibition at 1 µM was 0% in the test with PC-3 [2], 19.3% in the test on DU-145 [4], 18.5% in the test with LNCaP [6] and 18.3% with HeLa [8].

As for `Cn1cc(/C=C/C(=O)/C=C/c2cnn(C)c2)cn1`, the inhibition at 10 µM with PC-3 [1] was 27.1%; in the test with DU-145 [3] it was 0.01%; with LNCaP [5], 38.7%; in the test with HeLa [7], 20.7%. Moreover, the inhibition at 1 µM in the test on PC-3 [2] worked out at 0%; in the test with DU-145 [4], 0%; in the test with LNCaP [6], 6.45%; in the test on HeLa [8], 0%.

On to `O=C(/C=C/c1cncs1)/C=C/c1cncs1`, for which the inhibition at 10 µM in the test with PC-3 [1] is 89.6%; with DU-145 [3] it was 90.2%; in the test on LNCaP [5] it was 46.4%; with HeLa [7], 98.6%. Besides, the inhibition at 1 µM was determined as 19.3% in the test with PC-3 [2], 23.9% in the test on DU-145 [4], 14.5% with LNCaP [6] and 22.8% in the test on HeLa [8].

For orientation: inhibition means the share of the control response that was lost under treatment.
